Target: T1, LRRK2(G2019S mutation, GST-LRRK2(amino acids 970-2527)) (Homo sapiens, UniProt Q5S007, G2019S)
T1 construct: GST-LRRK2(amino acids 970-2527); GST (N); purchased Life Technologies Corporation
Assay: LRRK2 Km ATP LanthaScreen Assay
Format: biochemical
Conditions: Km ATP LanthaScreen; mean IC50 of several tests; read-out: LRRK2 IC50
Summary of the method: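 IC50 values are means of several runs in the Km-ATP LanthaScreen format, analysed by curve fitting of the LanthaScreen read-out.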

T1 sequence (Q5S007 970-2527 G2019S): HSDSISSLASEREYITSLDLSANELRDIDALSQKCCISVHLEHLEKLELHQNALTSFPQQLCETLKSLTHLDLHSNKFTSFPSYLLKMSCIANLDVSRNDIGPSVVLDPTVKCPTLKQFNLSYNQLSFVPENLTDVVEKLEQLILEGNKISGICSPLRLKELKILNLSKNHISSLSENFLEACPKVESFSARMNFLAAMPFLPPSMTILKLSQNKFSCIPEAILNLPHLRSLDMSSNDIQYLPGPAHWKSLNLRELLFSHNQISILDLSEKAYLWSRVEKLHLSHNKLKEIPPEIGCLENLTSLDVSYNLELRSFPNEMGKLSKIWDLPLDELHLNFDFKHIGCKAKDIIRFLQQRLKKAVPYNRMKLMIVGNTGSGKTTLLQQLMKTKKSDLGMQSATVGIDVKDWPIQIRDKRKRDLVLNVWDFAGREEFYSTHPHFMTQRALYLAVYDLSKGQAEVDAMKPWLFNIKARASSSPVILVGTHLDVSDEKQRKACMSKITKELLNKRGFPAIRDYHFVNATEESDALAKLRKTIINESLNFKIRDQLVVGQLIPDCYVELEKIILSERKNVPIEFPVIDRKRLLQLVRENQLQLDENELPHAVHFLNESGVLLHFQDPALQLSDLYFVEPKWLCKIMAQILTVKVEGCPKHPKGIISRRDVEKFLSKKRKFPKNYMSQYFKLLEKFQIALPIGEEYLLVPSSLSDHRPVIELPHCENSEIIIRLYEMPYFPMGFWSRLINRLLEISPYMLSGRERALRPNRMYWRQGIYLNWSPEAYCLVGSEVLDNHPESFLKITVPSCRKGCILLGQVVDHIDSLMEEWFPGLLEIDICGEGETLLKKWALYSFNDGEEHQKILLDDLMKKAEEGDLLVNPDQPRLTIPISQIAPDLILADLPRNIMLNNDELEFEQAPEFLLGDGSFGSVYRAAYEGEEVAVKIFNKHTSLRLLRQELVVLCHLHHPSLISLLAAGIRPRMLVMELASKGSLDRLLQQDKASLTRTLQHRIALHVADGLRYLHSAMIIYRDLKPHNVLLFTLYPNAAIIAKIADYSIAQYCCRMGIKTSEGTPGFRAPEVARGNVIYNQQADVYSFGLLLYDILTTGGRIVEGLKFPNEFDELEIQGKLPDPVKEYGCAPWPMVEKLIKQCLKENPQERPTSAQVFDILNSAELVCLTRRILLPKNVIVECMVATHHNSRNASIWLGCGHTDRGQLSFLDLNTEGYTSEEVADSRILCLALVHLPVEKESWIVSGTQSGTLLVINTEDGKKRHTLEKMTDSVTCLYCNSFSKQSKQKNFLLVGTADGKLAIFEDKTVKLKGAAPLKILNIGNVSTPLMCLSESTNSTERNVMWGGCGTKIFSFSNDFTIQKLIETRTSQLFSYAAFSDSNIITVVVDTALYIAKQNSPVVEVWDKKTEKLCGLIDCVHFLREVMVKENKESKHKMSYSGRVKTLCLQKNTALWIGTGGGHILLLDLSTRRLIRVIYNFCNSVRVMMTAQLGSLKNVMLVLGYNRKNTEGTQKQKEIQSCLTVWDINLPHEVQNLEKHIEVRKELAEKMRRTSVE

Structure (SMILES)	IC50 [nM]
CCCOc1ccc2[nH]nc(-c3ccnc(N4CCOCC4)c3)c2c1 [Example 301]	12
CC(C)Oc1ccc2[nH]nc(-c3ccnc(N4CCCC4=O)c3)c2c1 [Example 302]	24
CC(C)Oc1ccc2[nH]nc(-c3ccnc(N4CCOC4=O)c3)c2c1 [Example 303]	16
Cn1cc(-c2ccc3[nH]nc(-c4ccnc(N5CCC(C(=O)O)CC5)c4)c3c2)cn1 [Example 304]	3.6
COCC(C)Oc1ccc2[nH]nc(-c3ccnc(N4CCOCC4)c3)c2c1 (stereo not shown) [Example 305]	5.4
FC1CN(c2cc(-c3n[nH]c4ccc(-c5cccnc5)cc34)ccn2)C1 [Example 306]	2.9
Cc1ncc(-c2ccc3[nH]nc(-c4ccnc(N5CC(F)C5)c4)c3c2)n1C [Example 307]	2.1
Cc1nnc(-c2ccc3[nH]nc(-c4ccnc(N5CC(F)C5)c4)c3c2)o1 [Example 308]	4.9
Cn1cnnc1-c1ccc2[nH]nc(-c3ccnc(N4CC(F)C4)c3)c2c1 [Example 309]	1.8
Cc1ncc(-c2cc3c(-c4ccnc(N5CC(F)C5)c4)n[nH]c3cc2F)n1C [Example 310]	95
CC(C)Oc1ccc2[nH]nc(-c3ccnc(N4CCN(C)C(=O)C4)c3)c2c1 [Example 312]	2.6
Cn1cncc1-c1ccc2[nH]nc(-c3ccnc(N4CCOCC4)c3)c2c1 [Example 313]	< 0.6
COc1cccc(F)c1-c1ccc2[nH]nc(-c3ccnc(N4CCOCC4)c3)c2c1 [Example 314]	< 0.6
Oc1ccc(-c2ccc3[nH]nc(-c4ccnc(N5CCOCC5)c4)c3c2)cn1 [Example 315]	39
Cc1ncc(-c2ccc3[nH]nc(-c4ccnc(N5CCOCC5)c4)c3c2)n1C [Example 317]	1.4
Cc1nn(C)cc1-c1ccc2[nH]nc(-c3ccnc(N4CCOCC4)c3)c2c1 [Example 318]	17
c1cc(-c2ccc3[nH]nc(-c4ccnc(N5CCOCC5)c4)c3c2)cnn1 [Example 319]	8.2
COc1ccnc(Cl)c1-c1ccc2[nH]nc(-c3ccnc(N4CCOCC4)c3)c2c1 [Example 320]	< 0.6
c1cc(-c2n[nH]c3ccc(-c4cnco4)cc23)cc(N2CCOCC2)n1 [Example 322]	0.66
COc1ccncc1-c1cc2c(-c3ccnc(N4CCOCC4)c3)n[nH]c2cc1F [Example 323]	< 0.6
c1cnc(-c2ccc3[nH]nc(-c4ccnc(N5CCOCC5)c4)c3c2)cn1 [Example 324]	1.1
c1cc(-c2n[nH]c3ccc(-c4ncco4)cc23)cc(N2CCOCC2)n1 [Example 325]	6.9

Structure (SMILES)	IC50 [nM]
c1cnnc(-c2ccc3[nH]nc(-c4ccnc(N5CCOCC5)c4)c3c2)c1 [Example 326]	6.4
c1cc(-c2n[nH]c3ccc(-c4cncs4)cc23)cc(N2CCOCC2)n1 [Example 327]	< 0.6
COc1ccc(-c2ccc3[nH]nc(-c4ccnc(N5CCOCC5)c4)c3c2)c(OC)n1 [Example 328]	189
CCc1cnc(-c2ccc3[nH]nc(-c4ccnc(N5CCOCC5)c4)c3c2)nc1 [Example 330]	5.6
CC(C)(O)Cc1ccc2[nH]nc(-c3ccnc(N4CCOCC4)c3)c2c1 [Example 332]	93
OCCc1ccc2[nH]nc(-c3ccnc(N4CCOCC4)c3)c2c1 [Example 333]	30
Clc1cnc(-c2ccc3[nH]nc(-c4ccnc(N5CCOCC5)c4)c3c2)nc1 [Example 334]	52
CCCc1cnc(-c2ccc3[nH]nc(-c4ccnc(N5CCOCC5)c4)c3c2)nc1 [Example 335]	5.4
Cc1ccnc(-c2ccc3[nH]nc(-c4ccnc(N5CCOCC5)c4)c3c2)n1 [Example 336]	33
Fc1cnc(-c2ccc3[nH]nc(-c4ccnc(N5CCOCC5)c4)c3c2)nc1 [Example 337]	42
Cc1cnc(-c2ccc3[nH]nc(-c4ccnc(N5CCOCC5)c4)c3c2)nc1 [Example 338]	8.9
COc1cnc(-c2ccc3[nH]nc(-c4ccnc(N5CCOCC5)c4)c3c2)nc1 [Example 339]	22
Cn1cc(-c2ccc3[nH]nc(-c4ccnc(N5CCOCC5)c4)c3c2)nn1 [Example 340]	1.1
Cn1cnc(-c2ccc3[nH]nc(-c4ccnc(N5CCOCC5)c4)c3c2)c1 [Example 343]	4.9
c1cc(-c2n[nH]c3ccc(-c4cn[nH]c4)cc23)cc(N2CCOCC2)n1 [Example 344]	< 0.6
Cn1nccc1-c1ccc2[nH]nc(-c3ccnc(N4CCOCC4)c3)c2c1 [Example 345]	18
c1cc(-c2ccc3[nH]nc(-c4ccnc(N5CCOCC5)c4)c3c2)[nH]n1 [Example 346]	< 0.6
OCc1cc2c(-c3ccnc(N4CCOCC4)c3)n[nH]c2cc1F [Example 347]	38
CC(C)(O)COc1ccc2[nH]nc(-c3ccnc(N4CCOCC4)c3)c2c1 [Example 348]	14
OCCc1cc2c(-c3ccnc(N4CCOCC4)c3)n[nH]c2cc1F [Example 349]	27
CC(O)Cc1cc2c(-c3ccnc(N4CCOCC4)c3)n[nH]c2cc1F (stereo not shown) [Example 350]	76
Fc1cc2[nH]nc(-c3ccnc(N4CCOCC4)c3)c2cc1-c1ccn[nH]1 [Example 351]	1.1

Structure (SMILES)	IC50 [nM]
CCOc1ccc2[nH]nc(-c3ccnc(NCCOC)c3)c2c1 [Example 354]	6.2
CCOc1ccc2[nH]nc(-c3ccnc(NCCO)c3)c2c1 [Example 355]	10
CCOc1ccc2[nH]nc(-c3ccnc(N[C@@H](C)COC)c3)c2c1 [Example 356]	10
CCOc1ccc2[nH]nc(-c3ccnc(N[C@H](C)CO)c3)c2c1 [Example 357]	5.5
CCOc1ccc2[nH]nc(-c3ccnc(N[C@@H](C)CO)c3)c2c1 [Example 358]	16
CCOc1ccc2[nH]nc(-c3ccnc(N4CC(OC)C4)c3)c2c1 [Example 359]	15
CCOc1ccc2[nH]nc(-c3ccnc(N4CCN(S(C)(=O)=O)CC4)c3)c2c1 [Example 360]	< 0.6
CCOc1ccc2[nH]nc(-c3ccnc(N4CC(O)(C(F)(F)F)C4)c3)c2c1 [Example 361]	< 0.6
CCOc1ccc2[nH]nc(-c3ccnc(N4CCN(C)CC4)c3)c2c1 [Example 362]	10
OCCOc1ccc2[nH]nc(-c3ccnc(N4CCOCC4)c3)c2c1 [Example 363]	9.3
CC(C)Oc1cc2c(-c3ccnc(N4CCOCC4)c3)n[nH]c2cc1F [Example 364]	1.9
COc1ccncc1-c1ccc2[nH]nc(-c3ccnc(N4CCOCC4=O)c3)c2c1 [Example 365]	17
COc1ccnc(F)c1-c1ccc2[nH]nc(-c3ccnc(N4CCN(S(C)(=O)=O)CC4)c3)c2c1 [Example 366]	< 0.6
COc1ccnc(F)c1-c1ccc2[nH]nc(-c3ccnc(N4CCN(C(C)=O)CC4)c3)c2c1 [Example 367]	< 0.6
COCCOc1ccc2[nH]nc(-c3ccnc(N4CCN(C)C(=O)C4)c3)c2c1 [Example 368]	30
CS(=O)(=O)c1ccc2[nH]nc(-c3ccnc(N4CCOCC4)c3)c2c1 [Example 369]	109
O=S(=O)(c1ccc2[nH]nc(-c3ccnc(N4CCOCC4)c3)c2c1)C1CC1 [Example 370]	18
CCS(=O)(=O)c1ccc2[nH]nc(-c3ccnc(N4CCOCC4)c3)c2c1 [Example 371]	48
CS(=O)(=O)Cc1cc2c(-c3ccnc(N4CCOCC4)c3)n[nH]c2cc1F [Example 372]	1210
c1cc(-c2n[nH]c3ccc(OCC4CC4)cc23)cc(N2CCOCC2)n1 [Example 373]	84
FC(F)(F)Oc1ccc2[nH]nc(-c3ccnc(N4CCOCC4)c3)c2c1 [Example 374]	28
Cn1cc(-c2ccc3[nH]nc(-c4ccnc(N5CC(O)C5)c4)c3c2)cn1 [Example 375]	< 0.6

Structure (SMILES)	IC50 [nM]
COCCOc1ccc2[nH]nc(-c3ccnc(N4CCOCC4)c3)c2c1 [Example 377]	70
CC(C)Oc1ccc2[nH]nc(-c3ccnc(N4CCOC5(CC5)C4)c3)c2c1 [Example 378]	7.5
Cn1cc(-c2ccc3[nH]nc(-c4ccnc(N5CCOC6(CC6)C5)c4)c3c2)cn1 [Example 379]	4.2
Cn1cc(-c2ccc3[nH]nc(-c4ccnc(N5CC6CCC(C5)O6)c4)c3c2)cn1 [Example 380]	1.9
CC(C)Oc1ccc2[nH]nc(-c3ccnc(N4CCC(CCN)CC4)c3)c2c1 [Example 382]	6.8
CC(C)Oc1ccc2[nH]nc(-c3ccnc(N4CCN(C)C(C)C4)c3)c2c1 (stereo not shown) [Example 384]	2.2
CC(C)Oc1ccc2[nH]nc(-c3ccnc(N4CCN(S(C)(=O)=O)C(C)C4)c3)c2c1 (stereo not shown) [Example 385]	2.2
CC(C)Oc1ccc2[nH]nc(-c3ccnc(N4CCN(C(=O)C5CC5)C(C)C4)c3)c2c1 (stereo not shown) [Example 386]	2.8
c1cc(-c2n[nH]c3ccc(C4CC4)cc23)cc(N2CCOCC2)n1 [Example 387]	6
COc1nccnc1-c1ccc2[nH]nc(-c3ccnc(N4CCOCC4)c3)c2c1 [Example 388]	38
Oc1nccnc1-c1ccc2[nH]nc(-c3ccnc(N4CCOCC4)c3)c2c1 [Example 389]	< 0.6
Fc1ccc2[nH]nc(-c3ccnc(N4CCOCC4)c3)c2c1 [Example 391]	61
Fc1ccc2c(-c3ccnc(N4CCOCC4)c3)n[nH]c2c1 [Example 392]	32
COC(=O)c1ccc2[nH]nc(-c3ccnc(N4CCOCC4)c3)c2c1 [Example 393]	15
c1cc(-c2n[nH]c3cc4c(cc23)OCCO4)cc(N2CCOCC2)n1 [Example 394]	12
CC(C)Oc1ccc2[nH]nc(-c3ccnc(NS(C)(=O)=O)c3)c2c1 [Example 395]	20
FC(F)n1cc(-c2ccc3[nH]nc(-c4ccnc(N5CCOCC5)c4)c3c2)cn1 [Example 396]	2.8
Cc1cc2[nH]nc(-c3ccnc(N4CCOCC4)c3)c2cc1OC(C)C [Example 397]	167
Oc1ccc2[nH]nc(-c3ccnc(N4C5CCC4COC5)c3)c2c1 [Example 398]	69
